Data set [1] can be described thus: Negative allosteric modulator activity at P-gp in human LCC6MDR cells overexpressing P-gp assessed as reversal of P-gp mediated paclitaxel resistance activity incubated for 5 days by MTS assay. In general terms: Formazan colour is commonly taken as a measure of viable cells.
The nature of data set [2]: Negative allosteric modulator activity at P-gp in human LCC6MDR cells overexpressing P-gp assessed as reversal of P-gp mediated PTX resistance by measuring paclitaxel IC50 incubated for 5 days by MTS assay.
Data set [3] in a line: Negative allosteric modulator activity at human P-gp G1114L mutant expressed in HEK293FT cells assessed as reversal of P-gp mediated PTX resistance by measuring paclitaxel IC50 incubated for 5 days by MTS assay (Rvb = 4.5 +/- 1.1 nM).
Data set [4] is described as follows: Negative allosteric modulator activity at human P-gp C1227A mutant expressed in HEK293FT cells assessed as reversal of P-gp mediated PTX resistance by measuring paclitaxel IC50 incubated for 5 days by MTS assay (Rvb = 352.1 +/- 30.6 nM).
Data set [5] can be described thus: Negative allosteric modulator activity at human P-gp Q1193E mutant expressed in HEK293FT cells assessed as reversal of P-gp mediated PTX resistance by measuring paclitaxel IC50 incubated for 5 days by MTS assay (Rvb = 395.8 +/- 13.4 nM).
The nature of data set [6]: Negative allosteric modulator activity at human P-gp L1113A mutant expressed in HEK293FT cells assessed as reversal of P-gp mediated PTX resistance by measuring paclitaxel IC50 incubated for 5 days by MTS assay (Rvb = 590 +/- 14.2 nM).
Data set [7] is described as follows: Negative allosteric modulator activity at human P-gp Q1193C mutant expressed in HEK293FT cells assessed as reversal of P-gp mediated PTX resistance by measuring paclitaxel IC50 incubated for 5 days by MTS assay (Rvb = 359.4 +/- 22.3 nM).
A short description of data set [8]: Negative allosteric modulator activity at human P-gp T1226A mutant expressed in HEK293FT cells assessed as reversal of P-gp mediated PTX resistance by measuring paclitaxel IC50 incubated for 5 days by MTS assay (Rvb = 6.3 +/- 2.1 nM).
Data set [9] can be described thus: Negative allosteric modulator activity at human P-gp I1115E mutant expressed in HEK293FT cells assessed as reversal of P-gp mediated PTX resistance by measuring paclitaxel IC50 incubated for 5 days by MTS assay (Rvb = 7.4 +/- 0.8 nM).
A short description of data set [10]: Negative allosteric modulator activity at human wildtype P-gp expressed in HEK293FT cells assessed as reversal of P-gp mediated PTX resistance by measuring paclitaxel IC50 incubated for 5 days by MTS assay (Rvb = 540.5 +/- 20.3 nM).
Data set [11] can be described thus: Negative allosteric modulator activity at human P-gp G1114A mutant expressed in HEK293FT cells assessed as reversal of P-gp mediated PTX resistance by measuring paclitaxel IC50 incubated for 5 days by MTS assay (Rvb = 5.6 +/- 1.1 nM).
A short description of data set [12]: Negative allosteric modulator activity at human P-gp Q1193T mutant expressed in HEK293FT cells assessed as reversal of P-gp mediated PTX resistance by measuring paclitaxel IC50 incubated for 5 days by MTS assay (Rvb = 523.6 +/- 33.7 nM).
The nature of data set [13]: Negative allosteric modulator activity at human P-gp G1114V mutant expressed in HEK293FT cells assessed as reversal of P-gp mediated PTX resistance by measuring paclitaxel IC50 incubated for 5 days by MTS assay (Rvb = 3.4 +/- 0.5 nM).
A short description of data set [14]: Negative allosteric modulator activity at human P-gp I1115M mutant expressed in HEK293FT cells assessed as reversal of P-gp mediated PTX resistance by measuring paclitaxel IC50 incubated for 5 days by MTS assay (Rvb = 9.8 +/- 0.9 nM).
The nature of data set [15]: Negative allosteric modulator activity at human P-gp G1114I mutant expressed in HEK293FT cells assessed as reversal of P-gp mediated PTX resistance by measuring paclitaxel IC50 incubated for 5 days by MTS assay (Rvb = 10.2 +/- 2.4 nM).
Data set [16] can be described thus: Negative allosteric modulator activity at human P-gp I1115K mutant expressed in HEK293FT cells assessed as reversal of P-gp mediated PTX resistance by measuring paclitaxel IC50 incubated for 5 days by MTS assay (Rvb = 6.2 +/- 2 nM).
The nature of data set [17]: Negative allosteric modulator activity at human P-gp I1115F mutant expressed in HEK293FT cells assessed as reversal of P-gp mediated PTX resistance by measuring paclitaxel IC50 incubated for 5 days by MTS assay (Rvb = 663.1 +/- 10.2 nM).
Data set [18] can be described thus: Negative allosteric modulator activity at human P-gp Q1193K mutant expressed in HEK293FT cells assessed as reversal of P-gp mediated PTX resistance by measuring paclitaxel IC50 incubated for 5 days by MTS assay (Rvb = 466.2 +/- 72.3 nM).
A short description of data set [19]: Negative allosteric modulator activity at human P-gp I1115Y mutant expressed in HEK293FT cells assessed as reversal of P-gp mediated PTX resistance by measuring paclitaxel IC50 incubated for 5 days by MTS assay (Rvb = 6.9 +/- 1.2 nM).
A short description of data set [20]: Negative allosteric modulator activity at human P-gp I1115L mutant expressed in HEK293FT cells assessed as reversal of P-gp mediated PTX resistance by measuring paclitaxel IC50 incubated for 5 days by MTS assay (Rvb = 472 +/- 15.4 nM).
Data set [21] is described as follows: Negative allosteric modulator activity at human P-gp H1195A mutant expressed in HEK293FT cells assessed as reversal of P-gp mediated PTX resistance by measuring paclitaxel IC50 incubated for 5 days by MTS assay (Rvb = 3.4 +/- 1.5 nM).
Data set [22] can be described thus: Negative allosteric modulator activity at human P-gp Q1193A mutant expressed in HEK293FT cells assessed as reversal of P-gp mediated PTX resistance by measuring paclitaxel IC50 incubated for 5 days by MTS assay (Rvb = 483.4 +/- 17.2 nM).
Data set [23] in a line: Negative allosteric modulator activity at human P-gp T1226Y mutant expressed in HEK293FT cells assessed as reversal of P-gp mediated PTX resistance by measuring paclitaxel IC50 incubated for 5 days by MTS assay (Rvb = 449.3 +/- 31.2 nM).
A short description of data set [24]: Negative allosteric modulator activity at human P-gp Q1193F mutant expressed in HEK293FT cells assessed as reversal of P-gp mediated PTX resistance by measuring paclitaxel IC50 incubated for 5 days by MTS assay (Rvb = 453.6 +/- 14.8 nM).
The nature of data set [25]: Negative allosteric modulator activity at human P-gp T1226F mutant expressed in HEK293FT cells assessed as reversal of P-gp mediated PTX resistance by measuring paclitaxel IC50 incubated for 5 days by MTS assay (Rvb = 409.9 +/- 19.7 nM).
Data set [26] can be described thus: Negative allosteric modulator activity at human P-gp I1115W mutant expressed in HEK293FT cells assessed as reversal of P-gp mediated PTX resistance by measuring paclitaxel IC50 incubated for 5 days by MTS assay (Rvb = 7.8 +/- 0.9 nM).
Data set [27] is described as follows: Negative allosteric modulator activity at human P-gp Q1193N mutant expressed in HEK293FT cells assessed as reversal of P-gp mediated PTX resistance by measuring paclitaxel IC50 incubated for 5 days by MTS assay (Rvb = 560.2 +/- 43.9 nM).
Data set [28] is described as follows: Negative allosteric modulator activity at human P-gp T1226W mutant expressed in HEK293FT cells assessed as reversal of P-gp mediated PTX resistance by measuring paclitaxel IC50 incubated for 5 days by MTS assay (Rvb = 363.5 +/- 24.9 nM).
The nature of data set [29]: Negative allosteric modulator activity at human P-gp I1115N mutant expressed in HEK293FT cells assessed as reversal of P-gp mediated PTX resistance by measuring paclitaxel IC50 incubated for 5 days by MTS assay (Rvb = 10.2 +/- 1.6 nM).
Data set [30] in a line: Negative allosteric modulator activity at human P-gp I1115A mutant expressed in HEK293FT cells assessed as reversal of P-gp mediated PTX resistance by measuring paclitaxel IC50 incubated for 5 days by MTS assay (Rvb = 7.5 +/- 2.4 nM).

Data on 11 compounds can be found in BindingDB's records for doi:10.1021/acs.jmedchem.2c02005 (The Hong Kong Polytechnic University, 2023).

Bounds are passed on as bounds.

For orientation: EC50 means the midpoint of the concentration-response curve. With `O=c1cc(-c2ccc(OCCOCCOCCOCCOc3ccc(-c4cc(=O)c5ccccc5o4)cc3)cc2)oc2ccccc12`, the EC50 in data set [1] is 360 nM.

In general, IC50 refers to the concentration that gives 50% inhibition. Consider `O=c1cc(-c2ccc(OCCOCCNCc3ccc(C4(C(F)(F)F)N=N4)cc3)cc2)oc2ccccc12`, for which the IC50 in data set [2] came to 2.3 nM. For the same compound, the EC50 in [1] came out at 107 nM.

With `O=c1cc(-c2ccc(O)cc2)oc2cc(O)cc(O)c12` [Naringenin, 18], in data set [1], the 50% effective concentration (EC50) is above 10000 nM.

For the compound `O=c1cc(-c2ccc(OCCOCCN(Cc3ccc(C4(C(F)(F)F)N=N4)cc3)Cc3ccc(C4(C(F)(F)F)N=N4)cc3)cc2)oc2ccccc12`, in data set [2], the IC50 worked out at 158 nM. Moreover, the concentration for a half-maximal effect (EC50) in [1] amounted to 3010 nM.

With `[N-]=[N+]=NCc1cc(CNCCOCCOc2ccc(-c3cc(=O)c4ccccc4o3)cc2)cc(N=[N+]=[N-])c1`, in data set [2], the IC50 amounted to 2.1 nM. For the same compound, the EC50 in data set [1] is 110 nM.

As for `C#CCN(CCOCCOc1ccc(-c2cc(=O)c3ccccc3o2)cc1)Cc1ccc(C2(C(F)(F)F)N=N2)cc1`, the IC50 in [2] was found to be 57 nM. Moreover, the concentration for a half-maximal effect (EC50) in data set [1] turned out to be 602 nM.

With `C#CCNc1cc(C)cc2c(=O)cc(-c3ccc(OCCOCCN(Cc4ccc(C5(C(F)(F)F)N=N5)cc4)Cc4ccc(C5(C(F)(F)F)N=N5)cc4)cc3)oc12`, the half-maximal inhibitory concentration (IC50) in data set [2] came out at 312 nM.

For `C#CCNc1cc(C)cc2c(=O)cc(-c3ccc(OCCOCCNCc4ccc(C5(C(F)(F)F)N=N5)cc4)cc3)oc12`, the IC50 in data set [2] was determined as 280 nM. In addition, the EC50 in data set [1] was found to be 733 nM.

As to `O=c1cc(-c2ccc(OCCOCCNCc3ccccc3)cc2)oc2ccccc12`, the IC50 in data set [3] was determined as 4.8 nM; in data set [4], 5.2 nM; in data set [5], 93 nM; in [6], 4.2 nM; in data set [7] it was 29 nM; in data set [8], 4.6 nM. The 50% inhibitory concentration (IC50) was found to be 7.6 nM in [9]; 7.4 nM in data set [10]; 4.3 nM in [11]; 61 nM in data set [12]; 3.5 nM in data set [13]; 7.9 nM in data set [14]. In addition, the half-inhibitory concentration (IC50) in [15] amounted to 8.6 nM; in [2] it was 3.8 nM; in [16], 7.8 nM; in data set [17], 43 nM; in [18], 48 nM; in data set [19], 8.2 nM. Moreover, the concentration for half-maximal inhibition (IC50) is 10 nM in data set [20]; 4.7 nM in data set [21]; 112 nM in [22]; 7.2 nM in data set [23]; 81 nM in data set [24]; 6.9 nM in data set [25]. Further, the IC50 in data set [26] worked out at 8.3 nM; in [27] it was 11 nM; in data set [28], 6.4 nM; in data set [29] it was 9.9 nM; in data set [30] it was 6.3 nM.

`C#CCOc1cccc2oc(-c3ccc(OCCOCCNCc4ccc(C5(C(F)(F)F)N=N5)cc4)cc3)cc(=O)c12`: the IC50 in [2] came to 1.4 nM. In addition, the EC50 in data set [1] turned out to be 66 nM.

As for `O=c1cc(-c2ccc(OCCOCCOCCOCCOc3ccc(-c4cc(=O)c5c(O)cc(O)cc5o4)cc3)cc2)oc2cc(O)cc(O)c12`, the EC50 in data set [1] was 900 nM.
